Results taken from patent US10336739B2, “4-hydroxy-3-(heteroaryl)pyridine-2-one APJ agonists” (BRISTOL-MYERS SQUIBB COMPANY, priority 2015, dated 2019).

Biological target: human APJ receptor (Homo sapiens (Human), UniProt P35414)
Test: Intracellular cAMP accumulation assay (APJ hcAMP, HTRF)
Type: cell-based
Conditions: HEK293 cells stably expressing human APJ receptor; inhibition of forskolin-mediated cAMP production; read-out: hAPJ cAMP EC50 Potency range
Protocol: Intracellular cAMP Accumulation Assay
HEK293 cells stably expressing human APJ receptor were used to assess the activity of compounds. Cultured cells were detached and resuspended in the cAMP Homogeneous Time-Resolved Fluorescence (HTRF) assay buffer (Cisbio cat; #62AM4PEJ). The assay was performed in 384-well assay plates (Perkin-Elmer; cat #6008289) according to assay protocol provided by the manufacturer. Serial dilutions of a compound together with assay buffer containing […] and 2 μM forskolin were added to each well containing 5,000 cells and incubated for 30 minutes at room temperature. Subsequently, cAMP D2 reagent was added in the lysis buffer followed by the EuK antibody (Cisbio; cat #62AM4PEJ) and incubated for 60 min. The fluorescence emission ratio was measured using fluorometer. The intracellular cAMP concentrations (compound-stimulated inhibition of forskolin-mediated cAMP production) were calculated by extrapolation from a standard curve using known cAMP concentrations. The EC50 values were obtained by fitting the data to a sigmoidal concentration-response curve with variable slope.

Sequence of human APJ receptor (P35414 whole entry): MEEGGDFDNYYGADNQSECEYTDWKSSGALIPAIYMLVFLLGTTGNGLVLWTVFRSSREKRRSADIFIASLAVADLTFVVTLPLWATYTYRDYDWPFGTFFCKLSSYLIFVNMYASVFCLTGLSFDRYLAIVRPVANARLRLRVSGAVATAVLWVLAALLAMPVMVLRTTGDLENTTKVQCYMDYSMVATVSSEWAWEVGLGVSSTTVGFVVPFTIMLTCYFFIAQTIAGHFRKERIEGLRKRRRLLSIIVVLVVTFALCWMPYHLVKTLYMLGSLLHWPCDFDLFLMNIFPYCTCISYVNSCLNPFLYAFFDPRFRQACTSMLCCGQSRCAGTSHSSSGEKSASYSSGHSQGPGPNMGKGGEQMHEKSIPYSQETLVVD

Row | EC50 [nM] | Compound
1 | 10 to 100 | CCCCc1nc(O)c(-c2nnc(CCc3ccc(C(F)(F)F)cc3)o2)c(O)c1-c1c(OC)cccc1OC [Example 75, 6-butyl-5-(2,6-dimethoxyphenyl)-3-(5-{2-[4-(trifluoromethyl)phenyl]ethyl}-1,3,4-oxadiazol-2-yl)pyridine-2,4-diol]
2 | 10 to 100 | CCCCc1nc(O)c(-c2nnc(COc3ccc(F)c(F)c3)o2)c(O)c1-c1c(OC)cccc1OC [Example 76, 6-butyl-3-[5-(3,4-difluorophenoxy-methyl)-1,3,4-oxadiazol-2-yl]-5-(2,6-dimethoxyphenyl) pyridine-2,4-diol]
3 | 10 to 100 | CCCCc1nc(O)c(-c2nnc(CCc3nc(-c4ccccc4)no3)o2)c(O)c1-c1c(OC)cccc1OC [Example 77, 6-butyl-5-(2,6-dimethoxyphenyl)-3-{5-[2-(3-phenyl-1,2,4-oxadiazol-5-yl)ethyl]-1,3,4-oxadiazol-2-yl}pyridine-2,4-diol]
4 | 10 to 100 | CCCCc1nc(O)c(-c2nnc(Cc3cnn(-c4ccccc4)c3)o2)c(O)c1-c1c(OC)cccc1OC [Example 78, 6-butyl-5-(2,6-dimethoxyphenyl)-3-{5-[(1-phenyl-1H-pyrazol-4-yl)methyl]-1,3,4-oxadiazol-2-yl}pyridine-2,4-diol]
5 | 0.01 to 10 | CCCCc1nc(O)c(-c2nnc(Cc3csc(C)n3)o2)c(O)c1-c1c(OC)cccc1OC [Example 79, 6-butyl-5-(2,6-dimethoxyphenyl)-3-{5-[(2-methyl-1,3-thiazol-4-yl)methyl]-1,3,4-oxadiazol-2-yl}pyridine-2,4-diol]
6 | 0.01 to 10 | CCCCc1nc(O)c(-c2nnc(Cc3ccc(C(F)(F)F)cc3)o2)c(O)c1-c1c(OC)cccc1OC [Example 80, 6-butyl-5-(2,6-dimethoxyphenyl)-3-(5-{[4-(trifluoromethyl)phenyl]methyl}-1,3,4-oxadiazol-2-yl)pyridine-2,4-diol]
7 | 0.01 to 10 | CCCCc1nc(O)c(-c2nnc(CCc3ncccn3)o2)c(O)c1-c1c(OC)cccc1OC [Example 81, 6-butyl-5-(2,6-dimethoxyphenyl)-3-{5-[2-(pyrimidin-2-yl)ethyl]-1,3,4-oxadiazol-2-yl}pyridine-2,4-diol]
8 | 0.01 to 10 | CCCCc1nc(O)c(-c2nnc(CCc3nc4ccccc4s3)o2)c(O)c1-c1c(OC)cccc1OC [Example 82, 3-{5-[2-(1,3-benzothiazol-2-yl)ethyl]-1,3,4-oxadiazol-2-yl}-6-butyl-5-(2,6-dimethoxyphenyl) pyridine-2,4-diol]
9 | 0.01 to 10 | CCCCc1nc(O)c(-c2nnc(CCc3nc(-c4ccccn4)no3)o2)c(O)c1-c1c(OC)cccc1OC [Example 83, 6-butyl-5-(2,6-dimethoxyphenyl)-3-(5-{2-[3-(pyridin-2-yl)-1,2,4-oxadiazol-5-yl]ethyl}-1,3,4-oxadiazol-2-yl)pyridine-2,4-diol]
10 | 0.01 to 10 | CCCCc1nc(O)c(-c2nnc(Cc3nc(-c4ccccc4)sc3C)o2)c(O)c1-c1c(OC)cccc1OC [Example 84, 6-butyl-5-(2,6-dimethoxyphenyl)-3-{5-[(5-methyl-2-phenyl-1,3-thiazol-4-yl)methyl]-1,3,4-oxadiazol-2-yl}pyridine-2,4-diol]
11 | 10 to 100 | CCCCc1nc(O)c(-c2nnc(CCc3ccc(Cl)c(Cl)c3)o2)c(O)c1-c1c(OC)cccc1OC [Example 85, 6-butyl-3-{5-[2-(3,4-dichlorophenyl)ethyl]-1,3,4-oxadiazol-2-yl}-5-(2,6-dimethoxyphenyl) pyridine-2,4-diol]
12 | 0.01 to 10 | CCCCc1nc(O)c(-c2nnc(Cc3noc4ccccc34)o2)c(O)c1-c1c(Cl)cccc1Cl [Example 86, 3-[5-(1,2-benzoxazol-3-ylmethyl)-1,3,4-oxadiazol-2-yl]-6-butyl-5-(2,6-dichlorophenyl) pyridine-2,4-diol]
13 | 10 to 100 | CCCCc1nc(O)c(-c2nnc(Cc3ccc(Cl)cc3)o2)c(O)c1-c1c(Cl)cccc1Cl [Example 87, 6-butyl-3-{5-[(4-chlorophenyl)methyl]-1,3,4-oxadiazol-2-yl}-5-(2,6-dichlorophenyl) pyridine-2,4-diol]
14 | 0.01 to 10 | CCCCc1nc(O)c(-c2nnc(C(c3ccc(F)cc3)N(C)C)o2)c(O)c1-c1c(OC)cccc1OC (stereo not shown) [Example 88, 6-butyl-5-(2,6-dimethoxyphenyl)-3-{5-[(dimethylamino) (4-fluorophenyl)methyl]-1,3,4-oxadiazol-2-yl}pyridine-2,4-diol]
15 | 0.01 to 10 | CCOCc1nc(O)c(-c2nnc(Cc3noc4ccccc34)o2)c(O)c1-c1c(OC)cccc1OC [Example 89, 3-[5-(1,2-benzoxazol-3-ylmethyl)-1,3,4-oxadiazol-2-yl]-5-(2,6-dimethoxyphenyl)-6-(ethoxymethyl) pyridine-2,4-diol]

More lines, now with the values behind:

Row | Compound | EC50 [nM]
16 | CCCCc1nc(O)c(-c2nnc(Cc3ccnc(Cl)c3)o2)c(O)c1-c1c(OC)cccc1OC [Example 59, 6-butyl-3-{5-[(2-chloropyridin-4-yl)methyl]-1,3,4-oxadiazol-2-yl}-5-(2,6-dimethoxyphenyl) pyridine-2,4-diol] | 0.01 to 10
17 | CCCCc1nc(O)c(-c2nnc(CCc3nc(-c4ccc(OC)cc4)no3)o2)c(O)c1-c1c(OC)cccc1OC [Example 60, 6-butyl-5-(2,6-dimethoxyphenyl)-3-(5-{2-[3-(4-methoxyphenyl)-1,2,4-oxadiazol-5-yl]ethyl}-1,3,4-oxadiazol-2-yl)pyridine-2,4-diol] | 10 to 100
18 | CCCCc1nc(O)c(-c2nnc(C3NCCc4ccccc43)o2)c(O)c1-c1c(OC)cccc1OC (stereo not shown) [Example 61, 6-butyl-5-(2,6-dimethoxyphenyl)-3-[5-(1,2,3,4-tetra-hydroisoquinolin-1-yl)-1,3,4-oxadiazol-2-yl]pyridine-2,4-diol] | 0.01 to 10
19 | CCCCc1nc(O)c(-c2nnc(C(C)(C)c3ccc(Cl)c(Cl)c3)o2)c(O)c1-c1c(OC)cccc1OC [Example 62, 6-butyl-3-{5-[2-(3,4-dichlorophenyl)propan-2-yl]-1,3,4-oxadiazol-2-yl}-5-(2,6-dimethoxyphenyl) pyridine-2,4-diol] | 0.01 to 10
20 | CCCCc1nc(O)c(-c2nnc(Cc3nnn(C)n3)o2)c(O)c1-c1c(OC)cccc1OC [Example 63, 6-butyl-5-(2,6-dimethoxyphenyl)-3-{5-[(2-methyl-2H-1,2,3,4-tetrazol-5-yl)methyl]-1,3,4-oxadiazol-2-yl}pyridine-2,4-diol] | 0.01 to 10
21 | CCCCc1nc(O)c(-c2nnc(C(C)(C)Cc3ccccc3)o2)c(O)c1-c1c(OC)cccc1OC [Example 64, 6-butyl-5-(2,6-dimethoxyphenyl)-3-[5-(2-methyl-1-phenylpropan-2-yl)-1,3,4-oxadiazol-2-yl]pyridine-2,4-diol] | 0.01 to 10
22 | CCCCc1nc(O)c(-c2nnc(COc3ccc(C(F)(F)F)cc3)o2)c(O)c1-c1c(OC)cccc1OC [Example 65, 6-butyl-5-(2,6-dimethoxyphenyl)-3-{5-[4-(trifluoromethyl)phenoxymethyl]-1,3,4-oxadiazol-2-yl}pyridine-2,4-diol] | 10 to 100
23 | CCCCc1nc(O)c(-c2nnc(Cc3nnc(-c4ccccc4)[nH]3)o2)c(O)c1-c1c(OC)cccc1OC [Example 66, 6-butyl-5-(2,6-dimethoxyphenyl)-3-{5-[(5-phenyl-4H-1,2,4-triazol-3-yl)methyl]-1,3,4-oxadiazol-2-yl}pyridine-2,4-diol] | 0.01 to 10
24 | CCCCc1nc(O)c(-c2nnc(CC3CCCCC3)o2)c(O)c1-c1c(OC)cccc1OC [Example 67, 6-butyl-3-[5-(cyclohexylmethyl)-1,3,4-oxadiazol-2-yl]-5-(2,6-dimethoxyphenyl) pyridine-2,4-diol] | 0.01 to 10
25 | CCCCc1nc(O)c(-c2nnc(CCc3ccc(Cl)cc3)o2)c(O)c1-c1c(OC)cccc1OC [Example 68, 6-butyl-3-{5-[2-(4-chlorophenyl)ethyl]-1,3,4-oxadiazol-2-yl}-5-(2,6-dimethoxyphenyl) pyridine-2,4-diol] | 0.01 to 10
26 | CCCCc1nc(O)c(-c2nnc(CC3CCOCC3)o2)c(O)c1-c1c(OC)cccc1OC [Example 69, 6-butyl-5-(2,6-dimethoxyphenyl)-3-[5-(oxan-4-ylmethyl)-1,3,4-oxadiazol-2-yl]pyridine-2,4-diol] | 10 to 100
27 | CCCCc1nc(O)c(-c2nnc(Cc3ccc(F)c(Cl)c3)o2)c(O)c1-c1c(OC)cccc1OC [Example 70, 6-butyl-3-{5-[(3-chloro-4-fluorophenyl)methyl]-1,3,4-oxadiazol-2-yl}-5-(2,6-dimethoxyphenyl) pyridine-2,4-diol] | 0.01 to 10
28 | CCCCc1nc(O)c(-c2nnc(Cc3ccc(Cl)c(F)c3)o2)c(O)c1-c1c(OC)cccc1OC [Example 71, 6-butyl-3-{5-[(4-chloro-3-fluorophenyl)methyl]-1,3,4-oxadiazol-2-yl}-5-(2,6-dimethoxyphenyl) pyridine-2,4-diol] | 0.01 to 10
29 | CCCCc1nc(O)c(-c2nnc(CCc3nccs3)o2)c(O)c1-c1c(OC)cccc1OC [Example 72, 6-butyl-5-(2,6-dimethoxyphenyl)-3-{5-[2-(1,3-thiazol-2-yl)ethyl]-1,3,4-oxadiazol-2-yl}pyridine-2,4-diol] | 0.01 to 10
30 | CCCCc1nc(O)c(-c2nnc(Cc3cccc(C(F)(F)F)c3)o2)c(O)c1-c1c(OC)cccc1OC [Example 73, 6-butyl-5-(2,6-dimethoxyphenyl)-3-(5-{[3-(trifluoromethyl)phenyl]methyl}-1,3,4-oxadiazol-2-yl)pyridine-2,4-diol] | 10 to 100
31 | CCCCc1nc(O)c(-c2nnc(CCc3ccc(F)c(F)c3)o2)c(O)c1-c1c(OC)cccc1OC [Example 74, 6-butyl-3-{5-[2-(3,4-difluorophenyl)ethyl]-1,3,4-oxadiazol-2-yl}-5-(2,6-dimethoxyphenyl) pyridine-2,4-diol] | 0.01 to 10
